Laboratory results taken from patent US20240207219A1, “Artemisia anti-bacterial compositions and methods of use for inhibition of cells of Mycobacterium species” (priority 2022, published 2024).

Tests used:
[1] = system: Mtb in hypoxia-induced growth arrest; assay: Bactericidal activity of HAB9 in hypoxic growth conditions (variation of the Wayne model)
aerobically growing Mtb = details: aerobic growth
Mtb = details: in vitro; cited from earlier work

Row | SMILES | bactericidal activity in hypoxia-induced growth arrest ([1]; hypoxic, non-replicating Mtb) | anti-mycobacterial activity in limiting oxygen compared to aerobically grown cells ([1]; limiting oxygen versus aerobic) | bactericidal activity against aerobically growing Mtb (aerobically growing Mtb) | activity against Mtb under nutrient starvation or progressive oxygen depletion (Mtb)
1 | COc1ccc(-c2cc(=O)c3c(O)cc(OC)cc3o2)cc1 [Compound 1, 5-hydroxy-7-methoxy-2-(4-methoxyphenyl)chromen-4-one] | substantially reduced viable cultures of Mtb | enhanced | substantially reduced viable cultures of Mtb | 
2 | NNC(=O)c1ccncc1 [isoniazid] |  |  |  | little or no activity
